Experimental data as given in patent US10653672B2, “Myogenesis promotor, muscle atrophy inhibitor, medical composition and TAZ activator” (National University Corporation Tokyo Medical and Dental …, priority 2014, dated 2020).

Columns and labels:
A431 cells = test: Tumor sphere formation of A431 cells; type: cell-based; details: Ultra Low Attachment plate, serum-free medium, 10 μM, 10 days, maximum diameter of 30 cell aggregates
Procedure: (2) Each well of a 96-well plate was pre-coated with 30 μL BD Matrigel (trade name, Becton, Dickinson and Company). A431 cells were suspended in the 2% BD Matrigel at a concentration of 2.1×10^6 cells/mL. This cell solution (140 μL) was added with 0.17 μL of 10 mM IBS008739 stock solution in DMSO or 0.17 μL of DMSO, and used to layer the pre-coated wells, and proliferation in the 3D matrigel was observed (see FIG. 12B). 300 of A431 cells were placed in each well of Ultra Low Attachment 96-well plate, and cultured in a serum-free DMEM-F-12 medium containing 10 ng/mL FGF, 5 μg/mL insulin and 0.1% (w/v) BSA. Formation of tumor spheres was observed under the condition with 10 mM IBS008739 stock solution dissolved in DMSO so that the final concentration was 10 μM, or the condition with DMSO of the same volume (see FIG. 12C). The maximum diameter of 30 cell aggregates of 150 μm or more observed in the 3D matrigel or sphere formation condition) are measured as the size of 3D colony or sphere. The results are shown in Table 10 and FIGS. 12B and 12C. The line in the figure is 200 μm. The line and the error bar indicate the average value and the standard error, and ns refers to not significant.
Observation of the spheres and the 3D matrigel cultivation were performed by the following processes. […]

C2C12 cells = test: Evaluation of myogenesis of C2C12 cells by fusion index; type: cell-based, mouse; details: differentiation condition 72 hours, DMSO as 1, average of three
Procedure: (1) C2C12 cells were grown to confluence under growth condition, and then in differentiation condition for 72 hours, in a culture medium added with DMSO, IBS008738 (exemplary compound 1) or exemplary compounds 2 to 44, at a concentration of 1 μM, 3 μM or 10 μM, respectively. Thereafter, the degree of myogenesis was evaluated by a fusion index (a value obtained by dividing the number of nuclei detected in multinucleated myosin heavy chain (MHC)-positive cells by the total number of the nuclei). Specifically, exemplary compounds were divided into five groups, and DMSO and IBS008738 were evaluated in each group as controls. The evaluation was conducted three times, and the average value and the standard deviation of the fusion index was relativized with the measured value of DMSO as 1.
C2C12 cells were passaged in a growth medium (DMEM containing 10% FBS) and differentiated in a differentiation medium (DMEM containing 2% horse serum (Invitrogen)).

Pax3 reporter = test: Luciferase reporter assay, Pax3 reporter; type: cell-based; details: Mus musculus, C2C12, 24 h, C2C12 cells expressing reporter and TAZ WT, differentiation medium 24 hours
Procedure: (§1) The effect and its degree on the activity of a reporter, derived from a transcription factor that interacts with TAZ in C2C12 cells, were evaluated. Specifically, C2C12 cells expressing luciferase reporters corresponding to MyoD, TEAD, SMAD and Pax3 and C2C12 cells expressing these luciferase reporters and TAZ were cultured in a culture medium added with IBS008738 or DMSO at a concentration of 10 μM, respectively. […] The line and the error bar indicate the average value and the standard error, *p<0.05, **p<0.01, ns refers to not significant.
(§2) Transfection of the luciferase reporters was performed to the C2C12 cells after being plated at 12-well plates (1×10^5 cells/well) and cultured overnight. As the luciferase reporters, pGL3 Myo-184- (MyoD-), 8×GT-IIC-δ51LucII- (TEAD-), 9×CAGA-MLP-(SMAD-), and p(PRS-1/-4)3- (Pax3-) were transfected to the cells alone or with TAZ. These reporter vectors were from Keiji Miyazawa (Yamanashi University), Hiroshi Sasaki (Kumamoto University) and Hiroki Kurihara (The University of Tokyo).
(§3) Immediately after the transfection, DMSO or IBS008738 was added at a concentration of 10 μM, respectively. After growing the cells to confluence, the cells were transferred to a differentiation medium with DMSO or IBS008738, and cultured for 24 hours before the luciferase assay.

TAZ = test: Localization of TAZ in the cell by cell fraction; type: cell-based, mouse; details: C2C12 cells, 24 hours under differentiation condition
Procedure: Phosphorylation of TAZ and its localization in the cell are important factors in controlling the activity of TAZ. The localization of TAZ in the cell was examined by performing cell fraction of C2C12 cells after being cultured for 24 hours under differentiation condition in a medium added with IBS008738 or DMSO.

MyoD reporter = test: Luciferase reporter assay, MyoD reporter; type: cell-based; details: Mus musculus, C2C12, 24 h, C2C12 cells expressing reporter and TAZ WT, differentiation medium 24 hours
Procedure: as §1, §2, §3

For `Cc1ccc(-n2cnc(/N=C/N3CCOCC3)c2C(=O)c2ccccc2)cc1` [exemplary compound 1], the “Sphere size, average size (μm)” value (A431 cells) was 176.63 μm, the “relative fusion index (FI)” value (C2C12 cells; Group 1, 1 μM) was 1.47 and the “relative fusion index (FI)” value (C2C12 cells; Group 1, 3 μM) was 1.89. The “relative fusion index (FI)” value (C2C12 cells; Group 1, 10 μM) was 2.00, the “relative fusion index (FI)” value (C2C12 cells; Group 2, 1 μM) was 1.33 and the “relative fusion index (FI)” value (C2C12 cells; Group 2, 3 μM) was 1.80. For the same compound, the “relative fusion index (FI)” value (C2C12 cells; Group 2, 10 μM) was 2.03, the “relative fusion index (FI)” value (C2C12 cells; Group 3, 1 μM) was 1.28 and the “relative fusion index (FI)” value (C2C12 cells; Group 3, 3 μM) was 1.67. For the same compound, the “relative fusion index (FI)” value (C2C12 cells; Group 3, 10 μM) was 1.76, the “relative fusion index (FI)” value (C2C12 cells; Group 4, 1 μM) was 1.13 and the “relative fusion index (FI)” value (C2C12 cells; Group 4, 3 μM) was 1.53. The “relative fusion index (FI)” value (C2C12 cells; Group 4, 10 μM) was 1.68, the “relative fusion index (FI)” value (C2C12 cells; Group 5, 1 μM) was 1.10 and the “relative fusion index (FI)” value (C2C12 cells; Group 5, 3 μM) was 1.18. For the same compound, the “relative fusion index (FI)” value (C2C12 cells; Group 5, 10 μM) was 1.33, the fold induction at 10 µM (Pax3 reporter) was 0.8 and the “effect on the localization of TAZ in the cell” value (TAZ) was “no effect”. It also gave a fold induction at 10 µM (MyoD reporter) of 6.92.
